Test results from patent publication US5077407A, “Substituted 2-[monoannelated (3,4-,4,5-, and 5,6-) pyridylalkylenesulfinyl]benzimidazoles” (The Upjohn Company, priority 1988, dated 1991).
pIC50: −log10 of the molar value. Where two headings read alike, the source gives them in different places.

Tests used:
gastric acid secretion = assay: rat gastric antisecretory assay; assay type: in vivo
[1] = tested on: acid secretion in isolated gastric glands; assay: inhibition of acid secretion in isolated gastric glands of the rabbit; assay type: cell-based; details: Oryctolagus cuniculus, read-out: ID50, inhibition of acid secretion
(H^+ -K^+)ATP-ase = molecular target: T1, (H^+ -K^+)ATP-ase (Rattus norvegicus, UniProt P09626); assay: in vivo inactivation of (H+-K+)ATP-ase in the rat; details: for t1/2 of inhibition of rat gastric (H+ + K+) ATPase activity (duration of action): 10 mg/kg subcutaneously
T1 construct: from tissue; host or cells: stomach of the living rat (subcutaneous dosing)
Excerpt: Certain of the compounds of this invention are preferred because of their long duration of action when administered parenterally (e.g., subcutaneously).

gastric(H^+ -K^+)ATP-ase = molecular target: T2, gastric(H^+ -K^+)ATP-ase (Sus scrofa, UniProt P19156); assay: inhibition of K+-dependent ATP hydrolysis by isolated hog gastric membranes enriched with gastric (H+-K+)ATP-ase; assay type: biochemical; details: read-out: ED50, inhibition of K+-dependent ATP hydrolysis
T2 construct: isolated hog gastric membranes; from tissue; host or cells: hog gastric membranes
T2 sequence (P19156 2-1034 limits assumed): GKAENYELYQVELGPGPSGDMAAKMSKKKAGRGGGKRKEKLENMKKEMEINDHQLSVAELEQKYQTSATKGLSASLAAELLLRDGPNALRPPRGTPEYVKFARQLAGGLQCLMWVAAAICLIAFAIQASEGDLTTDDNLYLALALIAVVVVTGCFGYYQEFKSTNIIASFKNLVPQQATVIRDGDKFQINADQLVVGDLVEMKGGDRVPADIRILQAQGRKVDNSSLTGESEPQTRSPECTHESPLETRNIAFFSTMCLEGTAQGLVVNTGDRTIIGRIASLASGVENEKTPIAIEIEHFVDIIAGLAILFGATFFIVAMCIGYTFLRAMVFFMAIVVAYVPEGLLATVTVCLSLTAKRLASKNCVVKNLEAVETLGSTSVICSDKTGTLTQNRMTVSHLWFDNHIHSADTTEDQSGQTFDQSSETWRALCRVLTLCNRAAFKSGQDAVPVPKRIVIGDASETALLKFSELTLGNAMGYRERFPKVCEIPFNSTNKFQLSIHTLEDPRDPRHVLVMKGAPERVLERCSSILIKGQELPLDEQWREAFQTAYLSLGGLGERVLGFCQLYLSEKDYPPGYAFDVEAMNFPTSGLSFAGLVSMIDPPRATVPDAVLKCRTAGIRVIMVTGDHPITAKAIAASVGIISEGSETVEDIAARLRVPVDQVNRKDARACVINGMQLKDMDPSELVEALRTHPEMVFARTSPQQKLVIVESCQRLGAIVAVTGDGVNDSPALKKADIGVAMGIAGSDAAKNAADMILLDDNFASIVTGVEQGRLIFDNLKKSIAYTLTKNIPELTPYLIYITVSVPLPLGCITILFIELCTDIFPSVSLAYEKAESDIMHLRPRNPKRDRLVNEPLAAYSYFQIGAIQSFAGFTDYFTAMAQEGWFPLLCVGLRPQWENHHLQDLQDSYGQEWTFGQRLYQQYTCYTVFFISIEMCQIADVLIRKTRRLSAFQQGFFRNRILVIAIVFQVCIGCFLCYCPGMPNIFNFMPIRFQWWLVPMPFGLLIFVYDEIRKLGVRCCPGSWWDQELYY
T2 sequence (P18434 whole entry partner): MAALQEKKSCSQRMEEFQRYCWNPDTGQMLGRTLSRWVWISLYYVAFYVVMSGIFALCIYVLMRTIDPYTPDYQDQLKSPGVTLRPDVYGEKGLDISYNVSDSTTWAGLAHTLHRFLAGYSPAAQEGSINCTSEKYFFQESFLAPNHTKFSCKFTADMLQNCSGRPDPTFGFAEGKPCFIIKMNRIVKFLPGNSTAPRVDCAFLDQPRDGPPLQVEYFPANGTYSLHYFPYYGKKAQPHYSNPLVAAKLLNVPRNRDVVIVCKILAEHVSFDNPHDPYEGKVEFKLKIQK

T1 sequence (P09626 2-1033 limits assumed): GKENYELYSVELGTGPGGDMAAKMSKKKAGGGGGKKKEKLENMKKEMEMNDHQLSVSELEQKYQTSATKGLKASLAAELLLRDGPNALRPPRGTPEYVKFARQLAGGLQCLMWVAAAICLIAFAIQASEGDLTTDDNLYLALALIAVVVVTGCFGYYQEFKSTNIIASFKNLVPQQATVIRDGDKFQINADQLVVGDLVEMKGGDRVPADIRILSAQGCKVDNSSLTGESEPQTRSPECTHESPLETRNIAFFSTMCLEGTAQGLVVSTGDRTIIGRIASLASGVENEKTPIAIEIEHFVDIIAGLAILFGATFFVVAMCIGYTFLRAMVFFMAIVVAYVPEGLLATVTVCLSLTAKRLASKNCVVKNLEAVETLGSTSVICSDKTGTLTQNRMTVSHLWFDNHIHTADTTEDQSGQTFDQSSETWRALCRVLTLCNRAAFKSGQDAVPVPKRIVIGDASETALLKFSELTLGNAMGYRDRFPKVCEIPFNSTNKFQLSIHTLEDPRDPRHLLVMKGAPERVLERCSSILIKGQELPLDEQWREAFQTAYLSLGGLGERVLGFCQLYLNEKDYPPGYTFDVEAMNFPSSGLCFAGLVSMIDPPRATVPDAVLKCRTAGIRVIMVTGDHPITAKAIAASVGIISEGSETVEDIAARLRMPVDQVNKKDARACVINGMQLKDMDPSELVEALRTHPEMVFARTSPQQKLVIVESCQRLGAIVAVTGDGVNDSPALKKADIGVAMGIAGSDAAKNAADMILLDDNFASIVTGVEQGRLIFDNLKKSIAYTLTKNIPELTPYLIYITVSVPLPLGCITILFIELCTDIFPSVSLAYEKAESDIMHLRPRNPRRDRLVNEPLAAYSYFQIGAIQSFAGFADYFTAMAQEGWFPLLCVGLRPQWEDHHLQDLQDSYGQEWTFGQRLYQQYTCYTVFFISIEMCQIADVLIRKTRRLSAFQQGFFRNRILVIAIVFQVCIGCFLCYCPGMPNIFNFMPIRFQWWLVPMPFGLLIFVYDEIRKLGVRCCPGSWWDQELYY
T1 sequence (P18598 whole entry partner): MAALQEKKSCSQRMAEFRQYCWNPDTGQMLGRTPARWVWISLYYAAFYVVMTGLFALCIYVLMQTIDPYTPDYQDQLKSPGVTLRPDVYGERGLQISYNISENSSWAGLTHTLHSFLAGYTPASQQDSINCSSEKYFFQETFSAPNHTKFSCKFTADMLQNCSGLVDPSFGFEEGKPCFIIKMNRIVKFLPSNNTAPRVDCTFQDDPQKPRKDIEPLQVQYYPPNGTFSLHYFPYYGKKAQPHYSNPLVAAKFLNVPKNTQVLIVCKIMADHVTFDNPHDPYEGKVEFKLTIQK

In the case of `COc1ccc2nc([S+]([O-])Cc3nccc4c3CCCC4)[nH]c2c1` (stereo not shown) [Example 4, 2-[(5,6,7,8-Tetrahydroisoquinolin-1-yl)methyl]sulfinyl-5-methoxybenzimidazole], the ED50 (gastric acid secretion; sc, administered subcutaneously, read-out: ED50, inhibition of gastric acid secretion) was 1.8 mg/kg and the pIC50 [1] was 6.10.

For `[O-][S+](Cc1nccc2c1CCCS2)c1nc2ccccc2[nH]1` (stereo not shown) [Example 10, 2-[(5-Thia-5,6,7,8-tetrahydroisoquinolin-1-ylmethyl)sulfinyl]-benzimidazole], the “t1/2 of inhibition of rat gastric (H+ + K+) ATPase activity (duration of action)” value ((H^+ -K^+)ATP-ase) was 48 h.

For `[O-][S+](Cc1nccc2c1CCCC2)c1nc2ccccc2[nH]1` (stereo not shown) [2-[(5,6,7,8-tetrahydroisoquinolin-1-ylmethyl)sulfinyl]benzimidazole], the “t1/2 of inhibition of rat gastric (H+ + K+) ATPase activity (duration of action)” value ((H^+ -K^+)ATP-ase) was 96 h.

Compound `COc1ccc2nc([S+]([O-])Cc3nccc4c3CCCO4)[nH]c2c1` (stereo not shown) [Example 6, 2-[(6-Azachroman-5-yl)methyl]sulfinyl-5-methoxybenzimidazole] has an ED50 (gastric acid secretion; administered intraduodenally, read-out: ED50, rat gastric antisecretory assay) of 0.7 mg/kg, a pIC50 (gastric(H^+ -K^+)ATP-ase) of 5.00 and an ED50 ((H^+ -K^+)ATP-ase; sc, administered subcutaneously) of 1 mg/kg.
